Literature values as cited in patent US20190269715A1, “COMPOSITIONS AND METHOD OF USE OF A-TYPE PROCYANIDINS” (MARS, INCORPORATED, priority 2004, published 2019).

Tested on: tumor
Details: cited from earlier work

**Q.** For Nobotanin, which anti-tumor activity is on record?
**A.** anti-tumor activity
